The target in one test is IGFBP3. Briefly: Peptide inhibition of phage IGF-1 binding to IGFBP-3. More on the design: species or system human. To be noted: synthetic peptide preincubated 45 minutes with IGF-1 displaying phage; plates coated with IGF binding protein; read-out: BP3 Comp. As to the method:
(§1) Peptide Inhibition of Phage IGF-1 Binding to IGF Binding Proteins
(§2) For inhibition of IGFBP-1 and IGFBP3, E. coli cells (XL1-Blue, Stratagene) freshly transformed with the phage vector pIGF-g3 displaying human IGF-1 as described in Dubaquie and Lowman, supra, was grown overnight in 5 ml of 2YT medium (Sambrook et al., Molecular Cloning. A Laboratory Handbook (Cold Spring Harbor Laboratory Press, Cold Spring Harbor, N.Y., 1989)). The IGF-1 displaying phage was titered against IGF bp1 and bp3 for a 500-1000× dilution for preincubation with serial dilutions the synthesized peptides and binding protein standards for 45 minutes. Immunosorbant plates were coated with IGF binding proteins and blocked with 0.5% TWEEN®-20 detergent and PBS and washed as above. The samples were added to the plates for 20 minutes, washed and detected as above. The experimental IC50 values are in Table 5.

Test [1] has as its system human insulin receptor (hIR). Briefly: Cell-based insulin KIRA assay (kinase receptor activation). The note with it: Chinese hamster ovary cells transfected with hIR; peptides incubated with 25 nm IGF-1 for 1 hr; 15 min stimulation. Here is the method: Cell-Based Insulin KIRA Assay of IGF-1 Binding Peptide Activity
A kinase receptor activation assay (KIRA) (Sadick et al., J. Pharm. Biomed. Anal., 19, 883-891 (1999)) for measuring phosphorylation of human insulin receptor (hIR) was developed using Chinese hamster ovary cells transfected with the hIR. (TRY-1R 5.3) Cells were grown overnight in 96-well plates with medium (PS/20) at 37° C. Supernatants were decanted and stimulation media (PS/20 and 0.5% BSA) containing either peptide samples (peptides incubated with 25 nm IGF-1 for 1 hr), experimental controls (IGF Bp1 incubated with IGF-1 for 1 hr), and 25 nm rhIGF-1 standards were added. After fifteen minute stimulation at 37° C., stimulation solutions were removed and cells were lysed with a buffer containing 50 mM HEPES, 150 mM NaCl, 0.5% Triton-X-100™ octylphenyl ethylene oxide condensate, 1 mM AEBSF, aprotinin and 0.05 mM leupeptin, and 2 mM sodium orthovanadate. Lysates were frozen at −70° C. for ELISA. Immunosorbant plates were coated with 2 μg/ml insulin receptor Ab-2 (clone 83-7) in PBS at pH 7.0 overnight at 4° C. The plate was blocked and washed as above. Cell lysates containing transfected hIR were incubated on the capture ELISA plates for 2 hrs. After removing unbound receptor by washing, biotinylated anti-phosphotyrosine 4G10 (Upstate Biologicals Inc.) was added to detect activated receptor. After 2 hrs, the plates were developed with streptavidin conjugated to HRP and TMB substrate as above.

Test [2] has as its system human type 1 IGF-1 receptor. The test can be described thus: Cell-based IGF-1 KIRA assay. To be noted: MCF-7 cells; peptides preincubated 30 min with 2 nm IGF-1; 15-minute stimulation. Here is the method: Cell-Based IGF-1 KIRA Assay
A KIRA for measuring the activation of the human type 1 IGF-1 receptor was performed using human MCF-7 cells (as described above). Cells were grown overnight in 96-well plates with medium (50:50 F12/DMEM, Gibco). Supernatants were decanted, and stimulation media (50:50 F12/DMEM with 25 mM HEPES and 2.0% BSA) containing either controls (2 nM IGF-1 preincubated with IGF Bp1 or Bp3) or experimental samples (Peptides preincubated for 30 min. with 2 nm IGF-1) were added. After 15-minute stimulation the cells were lysed, and added to the polyclonal anti-IGF-R (3B7 Santa Cruz Biotech) coated overnight on immunosorbant plates. The detection ELISA was performed as above.

The target in a further test is IGFBP-1. Briefly: Peptide inhibition of phage IGF-1 binding to IGFBP-1. On the set-up: species or system human. The note with it: synthetic peptide preincubated 45 minutes with IGF-1 displaying phage; plates coated with IGF binding protein; read-out: BP1 Comp. As to the method:
as §1, §2

Test [3] concerns IGF receptors on MCF-7 cells. Briefly: Displacement of 125I IGF-1 on MCF-7 cells. More on the design: species or system human. The note with it: peptides preincubated with 2 nm 125I IGF-1 for 40 minutes at 37° C; added to cells for 30 minutes; read-out: MCF-7 binding. Here is the method:
Displacement of IGF-1 on MCF-7 Cells
MCF7 (ATCC-HTB, Bethesda, Md.), a breast carcinoma cell line that expresses IGF receptors as well as insulin receptors (Grupe et al., J. Biol. Chem., 270, 22085-22088 (1995)) was used to detect inhibition of ^125I IGF-1 to receptors on cells by synthesized peptides. Cell were passaged weekly in media containing a 50/50 mix of high-glucose DMEM/Ham's F12, with 10% fetal bovine serum and 10 mM HEPES pH 7.2. Cells were plated and grown overnight maintained at 37° C. and 5% CO2. For IGF-1 iodination, 50 μg of IGF-1 was diluted into 200 μL of PBS and added to a tube coated with 100 μg of IODOGEN® 1,3,4,6-tetrachloro-3α-6β-diphenylglycouril) (Pierce Chemical Co.), incubated with 1 mCi of ^125I-NaI (10 μL) at room temperature for 10-15 minutes. Synthesized peptides and binding protein controls were preincubated with 2 nm ^125I IGF-1 for 40 minutes at 37° C. The samples were added to cells for 30 minutes. The cells were washed with media and lysed with 1N NaOH.
For orientation: Loss of bound radioactivity is the signal in a displacement assay; it reports binding, not function.

Bridge positions count the residues as written; N and C are the ends. Peptide text beside a SMILES is read from it.

The values that follow come from patent publication US20060149033A1, “IGF antagonist peptides” (GENENTECH, INC., priority 2001, published 2006).

For the compound `CSCC[C@H](NC(=O)[C@@H]1CSSC[C@H](NC(=O)[C@H](CC(N)=O)NC(=O)[C@@H](N)CCCNC(=N)N)C(=O)N[C@@H](Cc2ccccc2)C(=O)N[C@@H](CCC(=O)O)C(=O)N[C@@H](CO)C(=O)N[C@@H](C(C)C)C(=O)N[C@@H](C)C(=O)N[C@@H](C)C(=O)N[C@@H](CC(C)C)C(=O)N[C@@H](CCCNC(=N)N)C(=O)N[C@@H](CCCNC(=N)N)C(=O)N1)C(=O)N[C@@H](Cc1ccc(O)cc1)C(=O)NCC(=O)O` [Peptide F1-1, RNCFESVAALRRCMYG] (H-RNCFESVAALRRCMYG-OH; disulfide 3-13), the IC50 at IGFBP3 stood at 2.93 µM; in test [1] it was 5.48 µM; in test [2] it was 84.9 µM; at IGFBP-1, 1.4 µM; in test [3], 5.12 µM.

For the compound `CSCC[C@H](NC(=O)[C@@H]1CSSC[C@H](NC(=O)[C@H](CC(=O)O)NC(=O)[C@@H](N)CCSC)C(=O)N[C@@H](CC(C)C)C(=O)N[C@@H](C)C(=O)N[C@@H](CO)C(=O)N[C@@H](C(C)C)C(=O)N[C@@H](CCC(=O)O)C(=O)N[C@@H](C)C(=O)N[C@@H](CC(C)C)C(=O)N[C@@H](CCCCN)C(=O)N[C@@H](Cc2c[nH]c3ccccc23)C(=O)N1)C(=O)N[C@@H](Cc1ccc(O)cc1)C(=O)NCC(=O)O` [Peptide F1-2, MDCLASVEALKWCMYG] (H-MDCLASVEALKWCMYG-OH; disulfide 3-13 (inferred); N-terminus and C-terminus assumed), the IC50 at IGFBP3 was 9.2 µM; in test [1], 32.6 µM; in test [2], 20 µM; on IGFBP-1, 15.5 µM; in test [3], 15.3 µM.

Regarding `CSCC[C@H](NC(=O)[C@@H]1CSSC[C@H](NC(=O)[C@H](CCC(=O)O)NC(=O)[C@@H](N)Cc2ccccc2)C(=O)N[C@@H](CC(C)C)C(=O)N[C@@H]([C@@H](C)O)C(=O)N[C@@H](CO)C(=O)N[C@@H](C(C)C)C(=O)N[C@@H](CCC(=O)O)C(=O)N[C@@H](C)C(=O)N[C@@H](CC(C)C)C(=O)N[C@@H](CCCNC(=N)N)C(=O)NCC(=O)N1)C(=O)N[C@@H](Cc1ccc(O)cc1)C(=O)NCC(N)=O` [Peptide F1-3, FECLTSVEALRGCMYG] (H-FECLTSVEALRGCMYG-NH2; disulfide 3-13; N-terminus and C-terminus assumed), the IC50 was 12.8 µM on IGFBP3; 66.1 µM in test [1]; 102 µM in test [2]; 11.7 µM at IGFBP-1; 45.7 µM in test [3].
